This is an account of results in patent publication EP0659751A1, “Optically active azole derivatives, their production and use” (TAKEDA CHEMICAL INDUSTRIES, LTD., priority 1993, dated 1995).

Structures are written as SMILES.

The test concerns Candida albicans TA. The test is described as follows: protective effect against experimental infection in mice. It is filed as in vivo, Crj:CDF₁ mice. To be noted: po, 168 h; mice inoculated i.v. with minimum lethal dose of Candida albicans TA; suspension in 0.5% CMC administered orally once immediately after infection; Reed and Muench method from survival rate 7 days after infection. The procedure: The protective effects of the compound of the present invention against the experimental infection in mice are shown in the following Table 1. Test Method: Five-week-old Crj:CDF₁ mice were inoculated with the minimum lethal dose of Candida albicans TA intravenously. The test compound was suspended in a solution of 0.5% sodium carboxymethylcellulose (CMC). The suspension was administered orally once immediately after infection. The activity was expressed in terms of ED₅₀ values calculated by the Reed and Muench method from the survival rate 7 days after infection.
As for `C[C@@H](n1ncn(-c2ccc(N3CCN(c4ccc(OC(F)(F)C(F)F)cc4)CC3)cc2)c1=O)[C@](O)(Cn1cncn1)c1ccc(F)cc1F` [Example 15, 2-[(1R,2R)-2-(2,4-difluorophenyl)-2-hydroxy-1-methyl-3-(1H-1,2,4-triazol-1-yl)propyl]-4-[4-[4-[4-(1,1,2,2-tetrafluoroethoxy)phenyl]-1-piperazinyl]phenyl]-3(2H,4H)-1,2,4-triazolone], the ED50 (commonly the dose that gives a 50% effect, or the effect in half of the subjects) is 2.8 mg/kg.

Consider `C[C@@H](n1ncn(-c2ccc(OCC(F)(F)C(F)F)cc2)c1=O)[C@](O)(Cn1cncn1)c1ccccc1F` [Example 16, 2-[(1R,2R)-2-(2-fluorophenyl)-2-hydroxy-1-methyl-3-(1H-1,2,4-triazol-1-yl)propyl]-4-[4-(2,2,3,3-tetrafluoropropoxy)phenyl]-3(2H,4H)-1,2,4-triazolone], for which the ED50 came to 0.25 mg/kg.

Compound `C[C@@H](n1ncn(-c2ccc(C(F)(F)F)cc2)c1=O)[C@](O)(Cn1cncn1)c1ccccc1F` [Example 17, 2-[(1R,2R)-2-(2-fluorophenyl)-2-hydroxy-1-methyl-3-(1H-1,2,4-triazol-1-yl)propyl]-4-(4-trifluoromethylphenyl)-3(2H,4H)-1,2,4-triazolone] displayed an ED50 of 0.22 mg/kg.

Take `C[C@@H](n1ncn(-c2ccc(OC(F)(F)F)cc2)c1=O)[C@](O)(Cn1cncn1)c1ccccc1F` [Example 18, 2-[(1R,2R)-2-(2-fluorophenyl)-2-hydroxy-1-methyl-3-(1H-1,2,4-triazol-1-yl)propyl]-4-(4-trifluoromethoxyphenyl)-3(2H,4H)-1,2,4-triazolone]: the ED50 was determined as 0.18 mg/kg.

The compound `C[C@@H](n1ncn(-c2ccc(OCC(F)(F)F)cc2)c1=O)[C@](O)(Cn1cncn1)c1ccccc1F` [Example 19, 2-[(1R,2R)-2-(2-fluorophenyl)-2-hydroxy-1-methyl-3-(1H-1,2,4-triazol-1-yl)propyl]-4-[4-(2,2,2-trifluoroethoxy)phenyl]-3(2H,4H)-1,2,4-triazolone] registered an ED50 of 0.18 mg/kg.

`C[C@@H](n1ncn(-c2ccc(OC(F)(F)C(F)F)cc2)c1=O)[C@](O)(Cn1cncn1)c1ccccc1F` [Example 20, 2-[(1R,2R)-2-(2-fluorophenyl)-2-hydroxy-1-methyl-3-(1H-1,2,4-triazol-1-yl)propyl]-4-[4-(1,1,2,2-tetrafluoroethoxy)phenyl]-3(2H,4H)-1,2,4-triazolone]: the ED50 is 0.18 mg/kg.

In the case of `Cc1nn([C@H](C)[C@](O)(Cn2cncn2)c2ccccc2F)c(=O)n1-c1ccc(OC(F)(F)C(F)F)cc1` [Example 21, 2-[(1R,2R)-2-(2-fluorophenyl)-2-hydroxy-1-methyl-3-(1H-1,2,4-triazol-1-yl)propyl]-5-methyl-4-[4-(1,1,2,2-tetrafluoroethoxy)phenyl]-3(2H,4H)-1,2,4-triazolone], the 50% effect level (ED50) was put at a dose of 0.21 mg/kg.

Consider `C[C@@H](n1cnn(-c2ccc(OC(F)(F)C(F)F)cc2)c1=O)[C@](O)(Cn1cncn1)c1ccccc1F` [Example 22, 4-[(1R,2R)-2-(2-fluorophenyl)-2-hydroxy-1-methyl-3-(1H-1,2,4-triazol-1-yl)propyl]-2-[4-(1,1,2,2-tetrafluoroethoxy)phenyl]-3(2H,4H)-1,2,4-triazolone], for which the ED50 was < 0.13 mg/kg.

With `C[C@@H](n1cnn(-c2ccc(OCC(F)(F)C(F)F)cc2)c1=O)[C@](O)(Cn1cncn1)c1ccccc1F` [Example 23, 4-[(1R,2R)-2-(2-fluorophenyl)-2-hydroxy-1-methyl-3-(1H-1,2,4-triazol-1-yl)propyl]-2-[4-(2,2,3,3-tetrafluoropropoxy)phenyl]-3(2H,4H)-1,2,4-triazolone], it took a dose of 0.16 mg/kg to reach the 50% effect level (ED50).

Compound `C[C@@H](n1ncn(-c2ccc(OC(F)(F)C(F)F)cc2)c1=O)[C@](O)(Cn1cncn1)c1ccc(F)cc1` [Example 25, 2-[(1R,2R)-2-(4-fluorophenyl)-2-hydroxy-1-methyl-3-(1H-1,2,4-triazol-1-yl)propyl]-4-[4-(1,1,2,2-tetrafluoroethoxy)phenyl]-3(2H,4H)-1,2,4-triazolone] registered an ED50 of 0.65 mg/kg.

Turning to `Cc1nn([C@H](C)[C@](O)(Cn2cncn2)c2ccc(F)cc2)c(=O)n1-c1ccc(OC(F)(F)C(F)F)cc1` [Example 26, 2-[(1R,2R)-2-(4-fluorophenyl)-2-hydroxy-1-methyl-3-(1H-1,2,4-triazol-1-yl)propyl]-5-methyl-4-[4-(1,1,2,2-tetrafluoroethoxy)phenyl]-3(2H,4H)-1,2,4-triazolone], the 50% effective dose (ED50) is 0.35 mg/kg. Against the preceding compound, the ED50 is about 1.9-fold lower.

`C[C@@H](n1cnn(-c2ccc(OC(F)(F)C(F)F)cc2)c1=O)[C@](O)(Cn1cncn1)c1ccc(F)cc1` [Example 27, 4-[(1R,2R)-2-(4-fluorophenyl)-2-hydroxy-1-methyl-3-(1H-1,2,4-triazol-1-yl)propyl]-2-[4-(1,1,2,2-tetrafluoroethoxy)phenyl]-3(2H,4H)-1,2,4-triazolone] showed an ED50 of 0.56 mg/kg.

`C[C@@H](n1cnn(-c2ccc(OCC(F)(F)C(F)F)cc2)c1=O)[C@](O)(Cn1cncn1)c1ccc(F)cc1` [Example 28, 4-[(1R,2R)-2-(4-fluorophenyl)-2-hydroxy-1-methyl-3-(1H-1,2,4-triazol-1-yl)propyl]-2-[4-(2,2,3,3-tetrafluoropropoxy)phenyl]-3(2H,4H)-1,2,4-triazolone] came in with an ED50 of 0.71 mg/kg.

Take `Cc1nn(-c2ccc(OC(F)(F)C(F)F)cc2)c(=O)n1[C@H](C)[C@](O)(Cn1cncn1)c1ccc(F)cc1F` [Example 29, 4-[(1R,2R)-2-(2,4-difluorophenyl)-2-hydroxy-1-methyl-3-(1H-1,2,4-triazol-1-yl)propyl]-5-methyl-2-[4-(1,1,2,2-tetrafluoroethoxy)phenyl]-3(2H,4H)-1,2,4-triazolone]: the ED50 is 2 mg/kg.
